The source of these data is paper PMC5456363 (PLoS ONE, 2017).

“And” between values parts separate entries of the source, which are not always exact repeats. Identical values can stand only once. “Also recorded” adds a separate entry of the source. Non-standard residues stand in square brackets, D forms with d. Residues, ends and D or L forms follow the SMILES beside them. No end group written: not given here. *: point of attachment. Orn(α-tetramethylguanidino) = CN(C)C(=N[C@@H](CCCN)C(=O)*)N(C)C; Orn = NCCC[C@H](N)C(=O)O Where only a bound is given, the exact number is not on record here.

Series [1] can be described thus: pooled CD-1 mouse plasma containing lithium heparin (heparin plasma, HP). Particulars: 37°C, up to 60 min.
Series [2] can be described thus: pooled CD-1 mouse plasma containing K2EDTA (EDTA plasma, EP). As to conditions: 37°C, up to 60 min.
Series [3] can be described thus: “activated serum” (AS): serum separator tubes incubated (room temperature, 1 h), centrifuged. Particulars: CD-1 mice, 37°C, up to 60 min.
The nature of series [4]: Pooled mouse serum (PAA Laboratories), commercial serum (CS). Particulars: 37°C, up to 60 min.
Series [5] can be described thus: blood collected via cardiac puncture into a syringe containing the peptide solution (“blood”, B). As to conditions: CD-1 mice, 37°C, up to 60 min.
The conditions of series [6]: cited from earlier work.
Series [7] is described as follows: Peptide stability in commercial serum (CS). Format: in vitro ADME, mouse. Particulars: commercial mouse serum, 37°C, 1 h, 31.5 μmol/L; for remaining at 1 h, 31.5 μmol/L: commercial pooled serum, read-out: intact peptide remaining relative to time zero. On the procedure:
(§1) All stability tests were performed at least in triplicates.

Series [8] is described as follows: Peptide stability in EDTA plasma (EP). Type of series: in vitro ADME, CD-1 mouse. Particulars: 37°C, 1 h, 31.5 μmol/L. On the procedure:
as §1

A short description of series [9]: Peptide stability in heparin plasma (HP). Format: in vitro ADME, CD-1 mouse. As to conditions: 37°C, 1 h, 31.5 μmol/L. The procedure: as §1
Series [10] can be described thus: Peptide stability in fresh blood taken by cardiac puncture into a syringe containing the peptide (blood, B). Format: in vitro ADME, CD-1 mice. As to conditions: blood, 37°C, 1 h, 31.5 μmol/L; for remaining at 1 h: CD-1, mouse, fresh whole blood, read-out: intact peptide remaining relative to time zero. On the procedure: as §1
Series [11] in a line: Stability and metabolites across fresh blood, serum and plasma (all six matrices). As to conditions: for Overall stability / Sequential stability: fresh blood, serum, and plasma.
Method: Aqueous peptide solutions (3 g/L) were filled in a sterile syringe (1 mL, Dispomed Witt oHG, Gelnhausen, Deutschland) through the front end, the stainless-steel needle was attached, and blood (200 to 300 μL) was collected via cardiac puncture to obtain a peptide concentration of approximately 31,5 μmol/L. The syringe was carefully disconnected from the needle and sealed while keeping the needle in the heart. A second empty syringe was attached to the needle and 0.5 to 0.8 mL blood were collected. In parallel, the sealed syringe was gently shaken for one minute to mix the peptide solution with blood and further incubated on a Stuart Rotator SB3 (Barloworld, Scientific LTD, Stone, Staffordshire, U.K.) placed in an incubator at 37°C. […] The plasma sample designated as “blood” (B) was precipitated with trichloroacetic acid (TCA), as described below. Blood collected in the second syringe was transferred to a polypropylene tube (Eppendorf AG, Hamburg, Germany) and a BD Microtainer® serum separator tube (SST; Becton, Dickinson and Company). Polypropylene tubes were centrifuged immediately (12,000 x g, 2 to 4 min) to obtain “direct serum” (DS) as supernatant, whereas the serum separator tubes were incubated (room temperature, 1 h), centrifuged (12,000 x g, 2 min), and collected as “activated serum” (AS). Pooled mouse serum was purchased from PAA Laboratories GmbH (Pasching, Austria) and pooled CD-1 mouse plasma containing K2EDTA or lithium heparin were obtained from Innovative Research (Novi, MI, USA).
Peptides were mixed with serum or plasma to a final concentration of 31.5 μmol/L and incubated (37°C, 750 rpm; Thermomixer, Eppendorf AG, Hamburg, Germany). Aliquots (20 or 40 μL) taken after 0 and 60 min (0, 10 and 30 min for Api88) were mixed with TCA to obtain a final concentration of 3% (w/v) and incubated on ice (10 min). After centrifugation (12,000 x g, 5 min), the supernatant was neutralized with sodium hydroxide (1 mol/L) and stored at −20°C. Samples were analyzed by RP-HPLC on a Jupiter C18-column (internal diameter: 2 mm, length: 150 mm, particle size: 5 μm, pore size: 30 nm) using a linear aqueous acetonitrile gradient containing TFA (0.1%, v/v) as ion pair reagent. Peptides were detected by recording the absorbance at 214 nm and quantified by their peak areas relative to the initial peak areas (0 min). All stability tests were performed at least in triplicates.
Metabolites were identified on an Agilent 1100 LC system (Agilent Technologies, Santa Clara, CA, USA) coupled on-line via a UV-detector (absorbance recorded at 214 nm) to the electrospray ionization source on an ion trap mass spectrometer (ESI-IT-MS, Esquire HCT, Bruker Daltonics GmbH, Bremen, Germany). Samples were separated on an Aqua C18-column (inner diameter: 2 mm, length: 150 mm, particle size: 3 μm, pore size: 12.5 nm, Phenomenex; column temperature: 60°C) at a flow rate of 0.2 mL/min using a linear gradient of aqueous acetonitrile in the presence of formic acid (FA; 0.1%, v/v) as ion pair reagent. […] The ESI-IT-MS was operated in positive ion mode. Ionization was carried out at 365°C (source temperature) using nitrogen as curtain gas (40 psi) and dry gas (9 L/min). Mass spectra were acquired for an m/z range from 400 to 1300 at a scan rate of 8100 m/z-units per second in standard enhanced mode.
The nature of series [12]: Peptide stability in activated serum (AS). Type of series: in vitro ADME, CD-1 mice. As to conditions: 37°C, 1 h, 31.5 μmol/L; for remaining at 1 h, 31.5 μmol/L: CD-1, mouse, read-out: intact peptide remaining relative to time zero. The procedure: as §1
A short description of series [13]: Peptide stability in direct serum (DS). Format: in vitro ADME, CD-1 mice. Particulars: 37°C, 1 h, 31.5 μmol/L; for remaining at 1 h, 31.5 μmol/L: CD-1, mouse, direct serum (supernatant of blood centrifuged immediately), read-out: intact peptide remaining relative to time zero. On the procedure: as §1
Series [14] is described as follows: “direct serum” (DS): blood in polypropylene tubes centrifuged immediately. As to conditions: CD-1 mice, 37°C, up to 60 min.
Another series concerns human α-thrombin. Briefly: human α-thrombin. Particulars: up to 24 hours.

Take “gu-ONNRPVYIPRPRPPHPOL-NH2 ({Orn(α-tetramethylguanidino)}-NNRPVYIPRPRPPHP[Orn]L-NH2)”: the fragment found result is “Api134(7–18), minor” in series [1]; “Api134(1–17), minor; also recorded: Api134(1–15), minor; also recorded: Api134(7–18), minor” in [3]; “Api134(1–17); also recorded: Api134 (1–16); also recorded: Api134(7–18); YIPRPRPPHPOL-NH2, major; also recorded: Api134 (8–18); IPRPRPPHPOL-NH2, major” in [4]. Moreover, the not cleaved in series [2] and in series [5] was ≥94% intact peptide (one hour) in each case.
With “H-VDKPPYLPRPRPPRRIYNR-NH2 [Onc18, VDKPPYLPRPRPPRRIYNR-NH2]”, the serum half-life time in series [6] (mouse serum) is 0.333 h and 0.417 h. Further, in [6] (serum, 1 h), the “fraction of peptide remaining in serum after 1 h, reported” value is recorded as “around a quarter”. Also, the “intact peptide remaining relative to time zero” value in series [7], in series [8] and in series [9] was “less than 13%” throughout. Besides, the fraction remaining at 1 h, 31.5 μmol/L amounted to 12 ± 1% in [7], 53 ± 4% in series [12] and 72 ± 4% in series [13]. Further, the fraction remaining at 1 h in [10] turned out to be 42 ± 12%. The Overall stability entry in [11] was “Medium”. For the same molecule, the Sequential stability result in [11] is “Blood = Serum > Plasma”.
Regarding `CC[C@H](C)[C@H](NC(=O)[C@H](Cc1ccc(O)cc1)NC(=O)[C@@H](NC(=O)[C@@H]1CCCN1C(=O)[C@H](CCCNC(=N)N)NC(=O)[C@H](CC(N)=O)NC(=O)[C@H](CC(N)=O)NC(=O)[C@H](CCCN)N=C(N(C)C)N(C)C)C(C)C)C(=O)N1CCC[C@H]1C(=O)N[C@@H](CCCNC(=N)N)C(=O)N1CCC[C@H]1C(=O)N[C@@H](CCCNC(=N)N)C(=O)N1CCC[C@H]1C(=O)N1CCC[C@H]1C(=O)N[C@@H](Cc1c[nH]cn1)C(=O)N1CCC[C@H]1C(=O)N[C@@H](CCCN)C(=O)N[C@@H](CC(C)C)C(N)=O` [Api134, gu-ONNRPVYIPRPRPPHPOL-NH2] ({Orn(α-tetramethylguanidino)}-NNRPVYIPRPRPPHP[Orn]L-NH2), the “half-life time in mouse serum” value in [6] (in vitro, mouse serum) was 4 h. In [7], the fraction remaining at 1 h, 31.5 μmol/L was determined as 78 ± 2%. For the same molecule, the “intact peptide remaining relative to time zero” value in series [8], in series [9], in series [10], in [12] and in series [13] was at least 94% each time. Moreover, the Overall stability result in series [11] is “High”. For the same molecule, in [11], the Sequential stability result is reported as “Blood = Plasma = Serum”.
As for “VDKPPYLPRPRPPRrIYNr-NH2 (H-VDKPPYLPRPRPPR[dR]IYN[dR]-NH2)”, the not cleaved entry is listed as “at least 96% remaining after 1 hour” in [1]; “at least 96% remaining after 1 hour” in [2]; “at least 96% remaining after 1 hour” in [3]; “less than 2% being degraded after 1 hour” in series [4]; “at least 96% remaining after 1 hour” in [14]; “at least 96% remaining after 1 hour” in series [5].
In the case of “gu-ONNRPVYIPRPRPPHPRL-OH ({Orn(α-tetramethylguanidino)}-NNRPVYIPRPRPPHPRL-OH)”, the fragment found result in series [1] is recorded as “Api137(1–17); also recorded: Api137(1–16); also recorded: Api137(1–15); also recorded: Api137(7–18)”; in the series with human α-thrombin, “Api137(1–17), minor, 24 h”; in series [3], “Api137(1–17); also recorded: Api137(1–16); also recorded: Api137(1–15)”; in series [4], “Api137(1–17); gu-ONNRPVYIPRPRPPHPR-OH; also recorded: Api137(1–16); gu-ONNRPVYIPRPRPPHP-OH; also recorded: Api137(1–15)”; in [14] it was “Api137(1–17); gu-ONNRPVYIPRPRPPHPR-OH; also recorded: Api137(1–16); also recorded: Api137(1–15)”; in [5], “Api137(1–17); gu-ONNRPVYIPRPRPPHPR-OH; also recorded: Api137(1–16); also recorded: Api137(1–15); also recorded: Api137(7–18)”. In series [2], the not cleaved is ≥94% (one hour).
For VDKPPYLPRPRPPRRIYN-OH [Onc18(1–18)], the “Matrix in which the metabolite was identified” value in [11] (LC-MS, peak area at least 1% of initially incubated peptide, B blood, DS direct serum, AS activated serum, CS commercial serum, EP EDTA plasma, HP heparin plasma, All = all six) is on record as “B, DS, AS, CS”.
`CC[C@H](C)[C@H](NC(=O)[C@H](CCCN)NC(=O)[C@H](CCCNC(=N)N)NC(=O)[C@@H]1CCCN1C(=O)[C@@H]1CCCN1C(=O)[C@H](CCCNC(=N)N)NC(=O)[C@@H]1CCCN1C(=O)[C@H](CCCNC(=N)N)NC(=O)[C@@H]1CCCN1C(=O)[C@H](CC(C)C)NC(=O)[C@H](Cc1ccc(O)cc1)NC(=O)[C@@H]1CCCN1C(=O)[C@@H]1CCCN1C(=O)[C@H](CCCCN)NC(=O)[C@H](CC(=O)O)NC(=O)[C@@H](N)C(C)C)C(=O)N[C@@H](Cc1ccc(O)cc1)C(=O)N[C@@H](CC(N)=O)C(=O)N[C@@H](CCCN)C(N)=O` [Onc72, VDKPPYLPRPRPPROIYNO-NH2] (H-VDKPPYLPRPRPPR[Orn]IYN[Orn]-NH2): the serum half-life time in [6] (mouse serum) is reported as 3 h. In addition, in series [6] (serum, 1 h), the “peptide remaining in serum after one hour, previous study” value is 80%. For the same molecule, the amount remaining at 1 h, 31.5 μmol/L amounted to 64 ± 2% in series [7]; 47 ± 3% in series [8] (CD-1, mouse, pooled plasma containing K2EDTA, read-out: intact peptide remaining relative to time zero); 62 ± 8% in series [9] (CD-1, mouse, pooled plasma containing lithium heparin, read-out: intact peptide remaining relative to time zero); 80 ± 12% in [12]; 94 ± 8% in [13]. Also, the share remaining at 1 h in series [10] was determined as 103 ± 11%. Besides, the Overall stability result in series [11] was “Medium”. For the same molecule, the Sequential stability result in [11] is listed as “Blood = Serum > Plasma”.
With “VDKPPYLPRPRPPROIYNO-NH2 (H-VDKPPYLPRPRPPR[Orn]IYN[Orn]-NH2)”, the cleaved bond result in [1] was “Arg14-Orn15, major; also recorded: Asn18-Orn19, major; also recorded: Orn15-Ile16”; in series [2], “Arg14-Orn15, major; also recorded: Asn18-Orn19, major; also recorded: Orn15-Ile16”; in [3], “Arg14-Orn15, major; also recorded: Asn18-Orn19, major”; in series [4], “Arg14-Orn15, major; also recorded: Asn18-Orn19, major; also recorded: Orn15-Ile16”; in series [14] it was “Arg14-Orn15, major; also recorded: Asn18-Orn19, major”; in [5], “Arg14-Orn15, major; also recorded: Asn18-Orn19, major”.
As to DTEDKGEFLSEGGGVR, the fragment found entry in [3] is “FPA(2–16); TEDKGEFLSEGGGVR; also recorded: FPA(3–16); EDKGEFLSEGGGVR”; in series [14], “FPA(2–16); TEDKGEFLSEGGGVR; also recorded: FPA(3–16); EDKGEFLSEGGGVR”; in series [5] it was “FPA(2–16); TEDKGEFLSEGGGVR, one hour; also recorded: FPA(3–16); EDKGEFLSEGGGVR, one hour”.
On to H-VDKPPYLPRPRPPRRIYNR-NH2, for which the cleaved bond result is given as “Arg14-Arg15, major” in series [1]; “Arg14-Arg15, major” in series [2]; “Arg14-Arg15, major” in series [3]; “Arg14-Arg15, major; also recorded: Asn18-Arg19, major” in [4]; “Arg14-Arg15, major” in series [14]; “Arg14-Arg15, major” in series [5]. Also, the fragment found result in [1] is “Onc18(2–14); DKPPYLPRPRPPR-OH”; in series [2] it was “Onc18(1–15); VDKPPYLPRPRPPRR-OH”; in [3] it was “Onc18(1–18); VDKPPYLPRPRPPRRIYN-OH”; in [14], “Onc18(1–18); VDKPPYLPRPRPPRRIYN-OH”; in [5] it was “Onc18(1–18); VDKPPYLPRPRPPRRIYN-OH”.
